In PMC10940605, “Design, synthesis and in vitro anticancer activity of some new lomefloxacin derivatives” (Scientific Reports, 2024):

Columns and labels:
UO-31 = experiment: NCI-60 SRB screen; format: cell-based; conditions: Homo sapiens; UO-31, 10^–5 Molar; read-out: Percent growth inhibition
Experimental: (§1) All newly synthesized compounds were selected and screened for anticancer activity against 60 human cancer cell lines representing 9 types of tumors including leukemia, melanoma, lung, colon, CNS, ovarian, renal, prostate, and breast cancers at the National Cancer Institute (NCI), Bethesda, USA. Screening was performed utilizing a single dose (10^−5 M concentration) and cells were incubated for 48 h. The end point was determined using sulforhodamine B (SRB) dye.
(§2) In this study, all the 16 newly synthesized compounds were submitted to the National Cancer Institute (USA) for anticancer evaluation and were selected and evaluated using 60 different human tumor cell lines representing lung, colon, CNS, ovarian, renal, prostate, breast cancers as well as leukemia and melanoma. A single dose (10^–5 Molar) was used for the initial screening for evaluation of anticancer activity. The 60 human cancer cell lines were provided by the national cancer institute biomedical research campus in Frederick, Maryland.
(§3) 60 different human cancer cell lines were utilized to screen the newly synthesized compounds for anticancer activity according to the previously reported standard procedure[24]–[26] as follows: • 96 well microtiter plates were used to inoculate the cells at […] ranging from 4000–5000 cells/well depending on the replication time of individual cell lines. Roswell Park Memorial Institute culture medium (RPMI 1640 medium) containing 2 mM L-glutamine and fetal bovine serum was used to grow the cells at 37 °C, 5% CO2, 95% air and 100% relative humidity for 24 h. • Fixation of cells in two plates of each cell line in situ was done using trichloroacetic acid (TCA). This represented the measurement of cell population at the time of drug addition (Tz). • Dimethyl sulfoxide (DMSO) was used to dissolve the synthesized compounds at 400-fold the desired final maximum concentration and frozen prior to use. This frozen concentrate was melted and diluted to twice the final concentration with complete medium containing 50 µg/mL gentamycin at time of drug addition. • The final compound concentration was obtained by adding 100 µL of the synthesized compounds to the appropriate microtiter wells already containing 100 µL followed by incubation of the plates at 37 °C, 5% CO2, 95% air and 100% relative humidity for 48 h. • Fixation of the cells was achieved by gentle addition of 50 µL of cold 50% (w/v) TCA followed by incubation for 60 min at 4 °C. The supernatant was then discarded and the plates are washed 5 times with tap water and air dried. • Sulphorhodamine B (SRB) solution (100 µL) at 0.4% (w/v) in 1% acetic acid was added to each plate followed by incubation for 10 min at room temperature. The unbound dye was then removed by washing five times with 1% acetic acid and plates were air dried. • Dissolution of the bound stain was done using […] trizma base and the absorbance was read at […] wavelength using an automated plate reader. • The percentage growth inhibition was calculated as follows: Ti-Tz/C-Tz×100forconcentrationswhichTi≥Tz Ti-Tz/Tz×100forconcentrationswhichTi<Tz • Time zero (Tz) • Control growth (C) • Test growth in the presence of drug (Ti)

UACC-62 = experiment: NCI-60 SRB screen; format: cell-based; conditions: Homo sapiens; UACC-62, 10^–5 Molar; read-out: Percent growth inhibition
Experimental: as §1, §2, §3

OVCAR-8 = experiment: NCI-60 SRB screen; format: cell-based; conditions: Homo sapiens; OVCAR-8, 10^–5 Molar; read-out: Percent growth inhibition
Experimental: as §1, §2, §3

SNB-19 = experiment: NCI-60 SRB screen; format: cell-based; conditions: Homo sapiens; SNB-19, 10^–5 Molar; read-out: Percent growth inhibition
Experimental: as §1, §2, §3

PC-3 = experiment: NCI-60 SRB screen; format: cell-based; conditions: Homo sapiens; PC-3, 10^–5 Molar; read-out: Percent growth inhibition
Experimental: as §1, §2, §3

MDA-MB-468 = experiment: NCI-60 SRB screen; format: cell-based; conditions: Homo sapiens; MDA-MB-468, 10^–5 Molar; read-out: Percent growth inhibition
Experimental: as §1, §2, §3

SF-295 = experiment: NCI-60 SRB screen; format: cell-based; conditions: Homo sapiens; SF-295, 10^–5 Molar; read-out: Percent growth inhibition
Experimental: as §1, §2, §3

HS 578T = experiment: NCI-60 SRB screen; format: cell-based; conditions: Homo sapiens, 10^–5 Molar, read-out: Percent growth inhibition
Experimental: as §1, §2, §3

MCF7 = experiment: NCI-60 SRB screen; format: cell-based; conditions: Homo sapiens; MCF7, 10^–5 Molar; read-out: Percent growth inhibition
Experimental: as §1, §2, §3

786-0 = experiment: NCI-60 SRB screen; format: cell-based; conditions: Homo sapiens; 786-0, 10^–5 Molar; read-out: Percent growth inhibition
Experimental: as §1, §2, §3

SF-268 = experiment: NCI-60 SRB screen; format: cell-based; conditions: Homo sapiens; SF-268, 10^–5 Molar; read-out: Percent growth inhibition
Experimental: as §1, §2, §3

A549/ATCC = experiment: NCI-60 SRB screen; format: cell-based; conditions: Homo sapiens, 10^–5 Molar, read-out: Percent growth inhibition
Experimental: as §1, §2, §3

NCI-H460 = experiment: NCI-60 SRB screen; format: cell-based; conditions: Homo sapiens; NCI-H460, 10^–5 Molar; read-out: Percent growth inhibition
Experimental: as §1, §2, §3

ACHN = experiment: NCI-60 SRB screen; format: cell-based; conditions: Homo sapiens, 10^–5 Molar, read-out: Percent growth inhibition
Experimental: as §1, §2, §3

SNB-75 = experiment: NCI-60 SRB screen; format: cell-based; conditions: Homo sapiens; SNB-75, 10^–5 Molar; read-out: Percent growth inhibition
Experimental: as §1, §2, §3

[1] = tested on: 60 human cancer cell lines; experiment: NCI-60 SRB screen, whole panel; format: cell-based; conditions: Homo sapiens; for activity at 10 µM: 48 h, One Dose Mean Graph, Conc 1.00E-5 Molar, read-out: Mean Growth Percent
IGROV1 = experiment: NCI-60 SRB screen; format: cell-based; conditions: Homo sapiens, IGROV-1; IGROV1, 10^–5 Molar; read-out: Percent growth inhibition
Experimental: as §1, §2, §3

HOP-62 = experiment: NCI-60 SRB screen; format: cell-based; conditions: Homo sapiens; HOP-62, 10^–5 Molar; read-out: Percent growth inhibition
Experimental: as §1, §2, §3

leukemia SR = experiment: NCI-60 SRB screen; format: cell-based; conditions: Homo sapiens; SR, 10^–5 Molar; read-out: Percent growth inhibition
Experimental: as §1, §2, §3

M14 = experiment: NCI-60 SRB screen; format: cell-based; conditions: Homo sapiens; M14, 10^–5 Molar; read-out: Percent growth inhibition
Experimental: as §1, §2, §3

EKVX = experiment: NCI-60 SRB screen; format: cell-based; conditions: Homo sapiens, 10^–5 Molar, read-out: Percent growth inhibition
Experimental: as §1, §2, §3

MOLT-4 = experiment: NCI-60 SRB screen; format: cell-based; conditions: Homo sapiens; MOLT-4, 10^–5 Molar; read-out: Percent growth inhibition
OVCAR-3 = experiment: NCI-60 SRB screen; format: cell-based; conditions: Homo sapiens; OVCAR-3, 10^–5 Molar; read-out: Percent growth inhibition

Compound	inhibition at 10 µM (UO-31) [%]	inhibition at 10 µM (UACC-62) [%]	inhibition at 10 µM (OVCAR-8) [%]	inhibition at 10 µM (SNB-19) [%]	inhibition at 10 µM (PC-3) [%]	inhibition at 10 µM (MDA-MB-468) [%]	inhibition at 10 µM (SF-295) [%]	inhibition at 10 µM (HS 578T) [%]	inhibition at 10 µM (MCF7) [%]	inhibition at 10 µM (786-0) [%]	inhibition at 10 µM (SF-268) [%]	inhibition at 10 µM (A549/ATCC) [%]	inhibition at 10 µM (NCI-H460) [%]	inhibition at 10 µM (ACHN) [%]	inhibition at 10 µM (SNB-75) [%]	activity at 10 µM [1] [%]	melting point [°C]	inhibition at 10 µM (IGROV1) [%]	inhibition at 10 µM (HOP-62) [%]	inhibition at 10 µM (leukemia SR) [%]	also measured
CCn1cc(C(=O)O)c(=O)c2cc(F)c(N3CCN(CC(=O)Nc4ccccc4)C(C)C3)c(F)c21 (stereo not drawn) [Compound 5a, 1-Ethyl-6,8-difluoro-7-(3-methyl-4-(2-oxo-2-(phenylamino)ethyl)piperazin-1-yl)-4-oxo-1,4-dihydroquinoline-3-carboxylic acid]	23.5	21.8	1.7	0.85	6.83	7.38	4.71	8.88	7.33	7.47	6.33	2.07	0.79	2.19	13.9	97.2	248 to 250	–	–	–	–
CCn1cc(C(=O)O)c(=O)c2cc(F)c(N3CCN(C(=O)c4ccc(Cl)cc4)C(C)C3)c(F)c21 (stereo not drawn) [Compound 7c, 7-(4-(4-Chlorobenzoyl)-3-methylpiperazin-1-yl)-1-ethyl-6,8-difluoro-4-oxo-1,4-dihydroquinoline-3-carboxylic acid]	23.9	18.9	–	6.42	9.65	3.92	3.13	5.57	9.09	–	7.02	1.75	1.66	4.45	9.12	97.7	282 to 284	1.62	2.13	8.55	–
CCn1cc(C(=O)O)c(=O)c2cc(F)c(N3CCN(CC(=O)Nc4ccc(Cl)cc4)C(C)C3)c(F)c21 (stereo not drawn) [Compound 5b, 7-(4-(2-((4-Chlorophenyl)amino)-2-oxoethyl)-3-methylpiperazin-1-yl)-1-ethyl-6,8-difluoro-4-oxo-1,4-dihydroquinoline-3-carboxylic acid]	31.4	40.8	7.15	1.6	12.1	7.4	13	11.2	10.6	–	6.49	6.12	9.4	14	17.7	94.6	218 to 220	0.82	–	–	inhibition at 10 µM (M14): 2.06%; inhibition at 10 µM (EKVX): 3.04%; inhibition at 10 µM (MOLT-4): 1%
CCn1cc(C(=O)O)c(=O)c2cc(F)c(N3CCN(C(=O)c4ccccc4)C(C)C3)c(F)c21 (stereo not drawn) [Compound 7a, 7-(4-Benzoyl-3-methylpiperazin-1-yl)-1-ethyl-6,8-difluoro-4-oxo-1,4-dihydroquinoline-3-carboxylic acid]	28.5	25	4.61	–	13	4.54	6.9	18.1	6.26	14.7	9.47	–	4.91	5.78	21.7	93.5	290 to 292	3.14	4.44	–	inhibition at 10 µM (M14): 9.98%; inhibition at 10 µM (EKVX): 1.21%; inhibition at 10 µM (OVCAR-3): 3.69%
CCn1cc(C(=O)O)c(=O)c2cc(F)c(N3CCN(C(=O)c4ccc([N+](=O)[O-])cc4)C(C)C3)c(F)c21 (stereo not drawn) [Compound 7d, 1-Ethyl-6,8-difluoro-7-(3-methyl-4-(4-nitrobenzoyl)piperazin-1-yl)-4-oxo-1,4-dihydroquinoline-3-carboxylic acid]	27.2	10.9	–	3.31	12	2.79	2.82	8.17	5.47	0.6	7.01	–	–	2.14	13.9	97.3	215 to 217	–	7.44	44.8	inhibition at 10 µM ([1]; prostate and renal cancer cell lines, 10^−5 M, read-out: percent inhibition): 12 to 27.2%
CCn1cc(C(=O)O)c(=O)c2cc(F)c(N3CCN(C(=O)c4ccc(Br)cc4)C(C)C3)c(F)c21 (stereo not drawn) [Compound 7b, 7-(4-(4-Bromobenzoyl)-3-methylpiperazin-1-yl)-1-ethyl-6,8-difluoro-4-oxo-1,4-dihydroquinoline-3-carboxylic acid]	21.4	17.5	–	4.45	5.63	3.31	6.71	4.22	8.87	0.58	6.79	1.07	1.2	2.27	2.37	98.8	271 to 273	5.97	5.56	1.41	–
